Experiments:
[1] = biological target: T1, glucocerebrosidase (GCase) (Mus musculus, UniProt P17439); experiment: Targeting of GCase with CBE in WT and C5aR1-/- mice, 60-day observation; assay type: in vivo; settings: CBE-injected WT mice
T1 construct: from tissue; brain examined
T1 sequence (P17439 20-515): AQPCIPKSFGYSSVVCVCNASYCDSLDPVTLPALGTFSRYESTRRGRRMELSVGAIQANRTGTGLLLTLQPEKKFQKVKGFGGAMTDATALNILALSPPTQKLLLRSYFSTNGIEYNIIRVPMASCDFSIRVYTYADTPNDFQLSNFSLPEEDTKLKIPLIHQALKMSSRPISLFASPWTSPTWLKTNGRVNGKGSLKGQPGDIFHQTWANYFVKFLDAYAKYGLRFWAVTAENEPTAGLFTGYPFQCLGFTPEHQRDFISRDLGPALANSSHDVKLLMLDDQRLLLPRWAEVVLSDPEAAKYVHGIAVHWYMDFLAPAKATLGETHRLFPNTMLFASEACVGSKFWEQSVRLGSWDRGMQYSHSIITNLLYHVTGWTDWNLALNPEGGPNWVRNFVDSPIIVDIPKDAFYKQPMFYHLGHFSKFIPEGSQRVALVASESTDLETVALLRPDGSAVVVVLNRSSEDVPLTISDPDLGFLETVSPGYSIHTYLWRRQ
Description: 9V/null mice suffered from massive accumulation of GC in the brain and loss of neurons. Applicant targeted glucocerebrosidase (GCase) with conduritol B epoxide (CBE) in WT and C5aR1^−/− mice. Strikingly, CBE-injected WT mice died within 30 days.

[2] = biological target: T2, GCase (Mus musculus, UniProt P17439); parameters: from tissue; brain examined; settings: i.p. 50 mg/kg/day for 4 weeks; cited from earlier work
T2 sequence (P17439 20-515): T1 sequence (P17439 20-515)

[3] = biological target: T2, GCase
[4] = biological target: T3, C5aR1 (Homo sapiens, UniProt P21730); settings: cited from earlier work
T3 sequence (P21730 1-350): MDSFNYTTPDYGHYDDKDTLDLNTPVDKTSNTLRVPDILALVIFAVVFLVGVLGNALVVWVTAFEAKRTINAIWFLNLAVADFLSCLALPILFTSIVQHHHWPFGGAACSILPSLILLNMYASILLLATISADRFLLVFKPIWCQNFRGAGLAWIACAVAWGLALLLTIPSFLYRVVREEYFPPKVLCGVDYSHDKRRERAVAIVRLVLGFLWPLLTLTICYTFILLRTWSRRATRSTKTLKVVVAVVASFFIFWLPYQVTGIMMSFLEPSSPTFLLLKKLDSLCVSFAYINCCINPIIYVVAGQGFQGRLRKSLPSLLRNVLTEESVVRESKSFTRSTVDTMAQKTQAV

[5] = tested on: experimental Gaucher disease; settings: cited from earlier work

In the case of `O[C@H]1[C@H](O)[C@@H](O)[C@@H]2O[C@@H]2[C@@H]1O` (racemic) [CBE, conduritol B epoxide], the time to death [1] is listed as no more than 30 days, the “reduction of GCase activity” value [2] is listed as 25-50% and the “motor, memory and reactivity behaviour” value ([3]; CBE-GCase targeted WT or C5aR1-/- mice, FIG. 8) is listed as “no motor or memory defects but are hyper-reactive”. For the same molecule, the brain glucosylceramide ([3]; brain of CBE-GCase targeted PD mouse model, FIG. 1) was “increased glucosylceramide”, the “brain C5a and C5aR1” value ([3]; brains of CBE-GCase targeted PD mouse model, FIG. 2) was “increased C5a and C5aR1” and the brain pro-inflammatory cytokines ([3]; brains of CBE-GCase targeted PD mouse model, FIG. 3) was “increased pro-inflammatory cytokines”.

In the case of “Cyclo[N2-(1-Oxo-3-phenylpropyl)-Orn-Pro-D-Cha-Trp-Arg] [PMX 205]”, the “concentration at which the peptide specifically targets C5aR1” value [4] is given as “nanomolar concentrations” and the “manner of action at C5aR1” value [4] is given as “pseudo-irreversible and insurmountable”.

B1: C5a-(1-66, Cys27Ala)-A8B-Del.71-73) (protein)
chain: TLQKKIEEIAAKYKHSVVKKCCYDGAAVNNDETCEQRAARISLGPRCIKAFTECCVVASQLRANISFKRS
modifications: (C5a-(1-66,Cys27Ala)-A8B-Del 71-73)
notes: mutein of human C5a that targets C5aR1 and C5aR2 simultaneously
For B1, the “survival and disease signs” value [5] is listed as “increase survival and reverse disease signs”.

— patent US20220332802A1, “METHODS AND COMPOSITIONS FOR TREATMENT OF NEURODEGENERATION” (Children's Hospital Medical Center, priority 2019, published 2022)
